PMC7872314, “Modeling Bioavailable Concentrations in Zebrafish Cell Lines and Embryos Increases the Correlation of Toxicity Potencies across Test Systems” (Environmental Science & Technology, 2020)
Where two headings read alike, the source gives them in different places.

Assays:
[1] = test system: ZF4 (fibroblasts) cell line; experiment: Neutral red, absorbance (NRa), AB/CFDA/NR multiplex, lysosome stability; type: cell-based, zebrafish (Danio rerio); details: Danio rerio, Fibroblast
zebrafish embryos [2] = experiment: animal or person; type: in vivo, zebrafish (Danio rerio); details: for EC50: Danio rerio
[3] = test system: ZFL (hepatocytes) cell line; experiment: cells; type: cell-based, zebrafish (Danio rerio); details: Danio rerio, Hepatocyte
ZF4 and ZFL cell lines = experiment: Cytotoxicity assays, all endpoints, both cell lines (mean/range); type: cell-based, zebrafish (Danio rerio); details: 48 h, mean of all cytotoxicity endpoints (without LDH) in ZF4 and ZFL
[4] = test system: ZF4 (fibroblasts) cell line; experiment: MTS assay (MTS/BCA multiplex), NAD(P)H metabolism; type: cell-based, zebrafish (Danio rerio); details: Danio rerio, Fibroblast
[5] = test system: ZF4 (fibroblasts) cell line; experiment: CFDA endpoint of AB/CFDA/NR multiplex, membrane stability; type: cell-based, zebrafish (Danio rerio); details: Danio rerio, Fibroblast
[6] = ref Comptox, PubChem or DrugBank; cited from earlier work
[7] = test system: ZF4 (fibroblasts) cell line; experiment: ATP assay (ATP/LDH multiplex), ATP metabolism; type: cell-based, zebrafish (Danio rerio); details: Danio rerio, Fibroblast
[8] = test system: ZFL (hepatocytes) cell line; experiment: cells; type: cell-based, zebrafish (Danio rerio); details: Danio rerio, Hepatocyte; remark: listed apart in the source
[9] = test system: ZFL (hepatocytes) cell line; experiment: cells; type: cell-based, zebrafish (Danio rerio); details: Danio rerio, Hepatocyte; remark: listed apart in the source
[10] = test system: ZF4 (fibroblasts) cell line; experiment: Neutral red, fluorescence (NRf), AB/CFDA/NR multiplex, lysosome stability; type: cell-based, zebrafish (Danio rerio); details: Danio rerio, Fibroblast
zebrafish embryos [11] = test system: zebrafish embryos; parameters: method as in earlier work; details: nominal, cited from earlier work
[12] = test system: ZFL (hepatocytes) cell line; experiment: cells; type: cell-based, zebrafish (Danio rerio); details: Danio rerio, Hepatocyte; remark: listed apart in the source
[13] = test system: ZFL (hepatocytes) cell line; experiment: cells; type: cell-based, zebrafish (Danio rerio); details: Danio rerio, Hepatocyte; remark: listed apart in the source
[14] = test system: zebrafish cell lines vs zebrafish embryo; experiment: Potency ratios IC50;x/EC50;x (cytotoxicity assays vs mFET); parameters: species or system zebrafish (Danio rerio)
[15] = test system: ZFL (hepatocytes) cell line; experiment: cells; type: cell-based, zebrafish (Danio rerio); details: Danio rerio, Hepatocyte; remark: listed apart in the source
[16] = test system: ZF4 (fibroblasts) cell line; experiment: BCA assay (MTS/BCA multiplex), protein amount; type: cell-based, zebrafish (Danio rerio); details: Danio rerio, Fibroblast
[17] = test system: ZFL (hepatocytes) cell line; experiment: cells; type: cell-based, zebrafish (Danio rerio); details: Danio rerio, Hepatocyte; remark: listed apart in the source
[18] = test system: ZF4 (fibroblasts) cell line; experiment: alamarBlue (AB) endpoint of AB/CFDA/NR multiplex, cellular respiration; type: cell-based, zebrafish (Danio rerio); details: Danio rerio, Fibroblast

In the case of `Cc1cc(-n2c(=O)[nH]c(=O)n(C)c2=O)ccc1Oc1ccc(SC(F)(F)F)cc1` [Toltrazuril, toltrazuril], the IC50 ([1]; NR-abs - ZF4, log10 of IC50, read-out: LogIC50 (converted)) is reported as 49.4 µM, the IC50 ([1]; NR-abs - ZF4, read-out: IC50) is reported as 49.4 µM and the IC50 ([1]; ZF4, 48 h exposure, nominal, log10, read-out: logIC50 (log10 IC50;nom) NRa (converted)) is reported as 49 µM. For the same compound, the IC50 ([1]; ZF4, 48 h exposure, nominal, read-out: IC50;nom NRa) was 49.4 µM, the IC50 ([1]; ZF4 cell line, NRa endpoint, nominal, read-out: IC50;nom) was 21 µg/mL and the “difference in toxicity (EC50;nom) between 48 hpf and 144 hpf” value (zebrafish embryos [2]; 48 hpf time point less sensitive than 144 hpf) was “marginally more toxic”. For the same compound, the “log EC50;nom (mFET)” value (zebrafish embryos [2]; 48 hpf, nominal, log10, listed as Tol) was -4.897 M, the EC50 (zebrafish embryos [2]; 48 hpf, nominal, log10, read-out: log EC50;nom (mFET) (converted)) was 12.6 µM and the EC50 (zebrafish embryos [2]; 48 hpf, nominal, read-out: EC50;nom (embryo)) was 5.4 µg/mL. It also gave an EC50 (zebrafish embryos [2]; read-out: EC50 48hpf) of 12.7 µM, an EC50 (zebrafish embryos [2]; read-out: EC50;nom (mFET)) of 12.7 µM and an IC50 ([3]; AB - ZFL, log10 of IC50, read-out: LogIC50 (converted)) of 69.6 µM. The IC50 ([3]; AB - ZFL, read-out: IC50) was 69.6 µM, the IC50 ([3]; ZFL, 48 h exposure, nominal, log10, read-out: logIC50 (log10 IC50;nom) AB (converted)) was 69.2 µM and the IC50 ([3]; ZFL, 48 h exposure, nominal, read-out: IC50;nom AB) was 69.6 µM. The IC50 (ZF4 and ZFL cell lines; Danio rerio, log10, read-out: Mean log IC50nom (converted)) was 85.1 µM, the “Mean log IC50nom” value (ZF4 and ZFL cell lines; log10, listed as Tol) was -4.074 M and the IC50 ([4]; MTS - ZF4, log10 of IC50, read-out: LogIC50 (converted)) was 175 µM. It also gave an IC50 ([4]; MTS - ZF4, read-out: IC50) of 175 µM, an IC50 ([4]; ZF4, 48 h exposure, nominal, log10, read-out: logIC50 (log10 IC50;nom) MTS (converted)) of 174 µM and an IC50 ([4]; ZF4, 48 h exposure, nominal, read-out: IC50;nom MTS) of 175 µM. It also gave an IC50 ([5]; CFDA - ZF4, log10 of IC50, read-out: LogIC50 (converted)) of 104 µM, an IC50 ([5]; CFDA - ZF4, read-out: IC50) of 104 µM and an IC50 ([5]; ZF4, 48 h exposure, nominal, log10, read-out: logIC50 (log10 IC50;nom) CFDA (converted)) of 105 µM. For the same compound, the IC50 ([5]; ZF4, 48 h exposure, nominal, read-out: IC50;nom CFDA) was 104 µM, the BCF [6] was 14.3 and the Physiological charge [6] was 0. For the same compound, the “Water Solubility” value [6] was “insoluble”, the logKoa [6] was 10.2 and the logKow [6] was 4.31. For the same compound, the “pKa (Strongest Acidic)” value [6] was 6.47, the “w_solubility (water solubility)” value [6] was 106 µM and the IC50 ([7]; ATP - ZF4, log10 of IC50, read-out: LogIC50 (converted)) was 43.8 µM. For the same compound, the IC50 ([7]; ATP - ZF4, read-out: IC50) was 43.8 µM, the IC50 ([7]; ZF4, 48 h exposure, nominal, log10, read-out: logIC50 (log10 IC50;nom) ATP (converted)) was 43.7 µM and the IC50 ([7]; ZF4, 48 h exposure, nominal, read-out: IC50;nom ATP) was 43.8 µM. For the same compound, the IC50 ([8]; ATP - ZFL, log10 of IC50, read-out: LogIC50 (converted)) was 20.3 µM, the IC50 ([8]; ATP - ZFL, read-out: IC50) was 20.3 µM and the IC50 ([8]; ZFL, 48 h exposure, nominal, log10, read-out: logIC50 (log10 IC50;nom) ATP (converted)) was 20.4 µM. It also gave an IC50 ([8]; ZFL, 48 h exposure, nominal, read-out: IC50;nom ATP) of 20.3 µM, an IC50 ([9]; CFDA - ZFL, log10 of IC50, read-out: LogIC50 (converted)) of 122 µM and an IC50 ([9]; CFDA - ZFL, read-out: IC50) of 122 µM. For the same compound, the IC50 ([9]; ZFL, 48 h exposure, nominal, log10, read-out: logIC50 (log10 IC50;nom) CFDA (converted)) was 123 µM, the IC50 ([9]; ZFL, 48 h exposure, nominal, read-out: IC50;nom CFDA) was 122 µM and the IC50 ([10]; NR-fluo - ZF4, log10 of IC50, read-out: LogIC50 (converted)) was 81.3 µM. For the same compound, the IC50 ([10]; NR-fluo - ZF4, read-out: IC50) was 81.3 µM, the IC50 ([10]; ZF4, 48 h exposure, nominal, log10, read-out: logIC50 (log10 IC50;nom) NRf (converted)) was 81.3 µM and the IC50 ([10]; ZF4, 48 h exposure, nominal, read-out: IC50;nom NRf) was 81.3 µM. The EC50 (zebrafish embryos [11]; 144 hpf, converted) was 2.59 µM, the “logEC50 144 hpf” value (zebrafish embryos [11]; log10) was -5.5874 M and the IC50 ([12]; NR-fluo - ZFL, log10 of IC50, read-out: LogIC50 (converted)) was 78.7 µM. It also gave an IC50 ([12]; NR-fluo - ZFL, read-out: IC50) of 78.7 µM, an IC50 ([12]; ZFL, 48 h exposure, nominal, log10, read-out: logIC50 (log10 IC50;nom) NRf (converted)) of 79.4 µM and an IC50 ([12]; ZFL, 48 h exposure, nominal, read-out: IC50;nom NRf) of 78.7 µM. The IC50 ([13]; NR-abs - ZFL, log10 of IC50, read-out: LogIC50 (converted)) was 84.7 µM, the IC50 ([13]; NR-abs - ZFL, read-out: IC50) was 84.7 µM and the IC50 ([13]; ZFL, 48 h exposure, nominal, log10, read-out: logIC50 (log10 IC50;nom) NRa (converted)) was 85.1 µM. The IC50 ([13]; ZFL, 48 h exposure, nominal, read-out: IC50;nom NRa) was 84.7 µM, the “in vitro toxicity (IC50;free) higher than EC50;nom” value ([14]; ZF4 NRa endpoint vs embryo) was 2 fold and the “potency ratio IC50;nom/EC50;nom (median)” value ([14]; median over cytotoxicity endpoints, nominal, 48 h cells / 48 hpf mFET) was 6.54. For the same compound, the IC50 ([15]; MTS - ZFL, log10 of IC50, read-out: LogIC50 (converted)) was 62.8 µM, the IC50 ([15]; MTS - ZFL, read-out: IC50) was 62.8 µM and the IC50 ([15]; ZFL, 48 h exposure, nominal, log10, read-out: logIC50 (log10 IC50;nom) MTS (converted)) was 63.1 µM. The IC50 ([15]; ZFL, 48 h exposure, nominal, read-out: IC50;nom MTS) was 62.8 µM, the IC50 ([16]; BCA - ZF4, log10 of IC50, read-out: LogIC50 (converted)) was 141 µM and the IC50 ([16]; BCA - ZF4, read-out: IC50) was 141 µM. The IC50 ([16]; ZF4, 48 h exposure, nominal, log10, read-out: logIC50 (log10 IC50;nom) BCA (converted)) was 141 µM, the IC50 ([16]; ZF4, 48 h exposure, nominal, read-out: IC50;nom BCA) was 141 µM and the IC50 ([17]; BCA - ZFL, log10 of IC50, read-out: LogIC50 (converted)) was 294 µM. It also gave an IC50 ([17]; BCA - ZFL, read-out: IC50) of 294 µM, an IC50 ([17]; ZFL, 48 h exposure, nominal, log10, read-out: logIC50 (log10 IC50;nom) BCA (converted)) of 295 µM and an IC50 ([17]; ZFL, 48 h exposure, nominal, read-out: IC50;nom BCA) of 294 µM. For the same compound, the IC50 ([18]; AB - ZF4, log10 of IC50, read-out: LogIC50 (converted)) was 97.5 µM, the IC50 ([18]; AB - ZF4, read-out: IC50) was 97.5 µM and the IC50 ([18]; ZF4, 48 h exposure, nominal, log10, read-out: logIC50 (log10 IC50;nom) AB (converted)) was 97.7 µM. It also gave an IC50 ([18]; ZF4, 48 h exposure, nominal, read-out: IC50;nom AB) of 97.5 µM.
